From ChEMBL document CHEMBL1140243, “Synthesis and SAR of 2,3-diarylpyrrole inhibitors of parasite cGMP-dependent protein kinase as novel anticoccidial agents” (Bioorg Med Chem Lett, 2005)

Key:
Format in all cases: functional
Parameters in all cases: scale not given: the % may be the effect or the level left
Gallus gallus [1] = organism: Gallus gallus; test: Anticoccidial activity (percent reduction in oocyst production) against Eimeria praecox in chickens at 66 ppm; Range = 50-79 %
Gallus gallus [2] = organism: Gallus gallus; test: Anticoccidial activity (percent reduction in oocyst production) against Eimeria mitis in chickens at 66 ppm; Range = 50-79 %
Gallus gallus [3] = organism: Gallus gallus; test: Anticoccidial activity (percent reduction in oocyst production) against Eimeria tenella in chickens at 66 ppm; Range = 50-79 %
Gallus gallus [4] = organism: Gallus gallus; test: Anticoccidial activity (percent reduction in oocyst production) against Eimeria maxima in chickens at 66 ppm; Range = 50-79 %
Gallus gallus [5] = organism: Gallus gallus; test: Anticoccidial activity (percent reduction in oocyst production) against Eimeria mivati in chickens at 66 ppm; Range = 50-79 %
Gallus gallus [6] = organism: Gallus gallus; test: Anticoccidial activity (percent reduction in oocyst production) against Eimeria acervulina in chickens at 66 ppm; Range = 50-79 %
Gallus gallus [7] = organism: Gallus gallus; test: Anticoccidial activity (percent reduction in oocyst production) against Eimeria necatrix in chickens at 66 ppm; Range = 50-79 %
Gallus gallus [8] = organism: Gallus gallus; test: Anticoccidial activity (percent reduction in oocyst production) against Eimeria brunetti in chickens at 66 ppm; Range = 50-79 %

Measured: Activity

CC[C@@H](C(=O)[C@@H](C)[C@@H](O)[C@H](C)[C@@H]1O[C@@H]([C@@H](CC)C(=O)O)CC[C@@H]1C)[C@H]1O[C@]2(C=C[C@@H](O)[C@]3(CC[C@@](C)([C@H]4CC[C@](O)(CC)[C@H](C)O4)O3)O2)[C@H](C)C[C@@H]1C [SALINOMYCIN]
<79%: Gallus gallus [1] | Gallus gallus [2] | Gallus gallus [3] | Gallus gallus [4] | Gallus gallus [5] | Gallus gallus [6] | Gallus gallus [7] | Gallus gallus [8]
